According to patent US5922767A, “Substituted benzylurea derivatives and medicine containing the same” (SS Pharmaceutical Co., Ltd., priority 1996, dated 1999):

Tests used:
ACAT in J774 cells = biological target: T1, ACAT in J774 cells (Mus musculus, UniProt Q61263); experiment: Test for inhibitory activity against ACAT using J774 cells; format: cell-based; details: 100 nM of each compound, Mean ± S.D., n = 3, vs DMSO control, read-out: Inhibition rate against ACAT activity in J774 cells
T1 construct: endogenous in cells; host or cells: J774 cells (mouse macrophage-like)
T1 sequence (Q61263 1-540): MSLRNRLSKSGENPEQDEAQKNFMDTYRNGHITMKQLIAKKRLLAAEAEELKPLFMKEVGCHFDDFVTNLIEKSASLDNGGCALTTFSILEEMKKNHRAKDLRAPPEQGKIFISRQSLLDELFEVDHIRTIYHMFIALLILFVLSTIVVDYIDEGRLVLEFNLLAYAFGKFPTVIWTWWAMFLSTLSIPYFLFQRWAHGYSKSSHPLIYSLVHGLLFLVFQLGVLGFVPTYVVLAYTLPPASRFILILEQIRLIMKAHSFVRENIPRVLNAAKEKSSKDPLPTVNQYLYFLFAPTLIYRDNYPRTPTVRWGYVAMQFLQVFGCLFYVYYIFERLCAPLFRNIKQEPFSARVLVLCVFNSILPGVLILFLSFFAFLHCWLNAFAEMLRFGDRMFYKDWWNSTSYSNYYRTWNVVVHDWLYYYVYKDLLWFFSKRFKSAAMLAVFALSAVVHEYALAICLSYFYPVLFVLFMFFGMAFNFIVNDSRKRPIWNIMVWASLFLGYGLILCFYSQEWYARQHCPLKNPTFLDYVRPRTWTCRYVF
Experimental: i) Test for inhibitory activity against ACAT using J774 cells:
The ACAT activity of J774 cells was measured as the radioactivity of cholesteryl oleate produced from [^14 C]oleic acid and cholesterol which were added to a culture solution.
The extract was dried to solid under reduced pressure. After the resultant residue was then developed (developing solvent: diethyl ether/hexane/acetic acid=80/20/1) by TLC (thin-layer chromatography), the amount of cholesteryl oleate formed was determined by an imaging plate.

[1] = biological target: T2, ACAT of rat liver microsomes (Rattus norvegicus, UniProt Q7TQM4); experiment: Test for inhibitory activity against ACAT using rat liver microsomes; format: biochemical; details: 5 min; 100 nM of each compound; Mean ± S.D.; n = 3; vs DMSO control; read-out: Inhibition rate against ACAT activity in rat liver microsome
T2 construct: rat liver microsome fraction prepared in accordance with a method known per se; from tissue; host or cells: rat liver microsomes
T2 sequence (Q7TQM4 1-524): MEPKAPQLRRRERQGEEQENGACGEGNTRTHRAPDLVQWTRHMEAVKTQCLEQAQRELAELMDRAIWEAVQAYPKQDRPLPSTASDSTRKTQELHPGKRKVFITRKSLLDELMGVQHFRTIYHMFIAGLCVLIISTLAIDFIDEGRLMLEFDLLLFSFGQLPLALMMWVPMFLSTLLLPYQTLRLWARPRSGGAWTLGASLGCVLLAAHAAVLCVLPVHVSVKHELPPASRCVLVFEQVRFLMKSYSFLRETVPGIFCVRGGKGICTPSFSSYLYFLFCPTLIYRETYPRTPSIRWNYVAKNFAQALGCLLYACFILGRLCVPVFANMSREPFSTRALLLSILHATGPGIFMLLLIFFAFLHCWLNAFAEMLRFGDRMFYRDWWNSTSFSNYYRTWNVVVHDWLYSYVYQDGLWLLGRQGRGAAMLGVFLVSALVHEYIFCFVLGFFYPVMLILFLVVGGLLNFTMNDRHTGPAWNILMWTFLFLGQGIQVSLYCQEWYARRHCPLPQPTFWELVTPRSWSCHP
Experimental: More specifically, [^14 C]oleoyl-CoA and delipidized BSA were added to a rat liver microsome fraction prepared in accordance with a method known per se in the art to conduct a reaction at 37° C. for 5 minutes. After the reaction, the lipid in the reaction mixture was extracted with hexane, and the extract was dried to solid under reduced pressure.

inhibition at 0.1 µM (ACAT in J774 cells): 86.3 ± 1.58% | inhibition at 0.1 µM [1]: 0%
SMILES: CC(C)c1cccc(C(C)C)c1NC(=O)NCc1cccc(OCc2ccc([N+](=O)[O-])cc2)c1 [Compound 1, 1-(2,6-diisopropylphenyl)-3-[3-(4-nitrobenzyloxy)benzyl]urea]
